Assay: Psilocin conversion in the dose formulation (HPLC-MS/MS)
Type: physicochemical
Conditions: saline formulation, final pH 6.3, aliquots stored at −80° C. until analysis
Protocol: Compounds: Compound 122 was dissolved in saline (1.3 mg/kg) and adjusted to pH 7.4 for SC administration to the neck scruff at a dosing volume of 5 mL/kg. The final pH was checked prior to dosing, and found to be pH 6.3. This dose was selected as it delivered 0.72 mg/kg psilocin (assuming 100% conversion of the pro-drug). Aliquots of the formulation was additionally collected and stored at −80° C. until analysis by high performance liquid chromatography with tandem mass spectrometry (HPLC-MS/MS) to confirm dosing of compound 122 and minimal conversion to psilocin pre-dose (<2.5%).
[…]. Three aliquots from the dose formulations were diluted to a nominal concentration of 5 μg/mL, and injected in triplicate into the HPLC-MS/MS. The relative percentage of the psilocin peak in the dose formulation compared to the psilocin standard peak at 5 μg/mL, was used to assess for psilocin conversion in the dosing formulations.

CN(C)CCc1c[nH]c2cccc(OC(=O)CCCC(=O)Oc3cccc4[nH]cc(CCN(C)C)c34)c12 [Compound 122, bis(3-(2-(dimethylamino)ethyl)-1H-indol-4-yl) glutarate]
conversion to psilocin pre-dose in dose formulation: < 2.5%

Source: patent US20250066300A1, “3-(2-(DIMETHYLAMINO)ETHYL)-1H-INDOL-4-yl OLIGOMERIC DERIVATIVES” (priority 2023, published 2025)
